Kd data for 18 molecules are collected here from patent US12043632B2, “6-heteroaryloxy benzimidazoles and azabenzimidazoles as JAK2 inhibitors” (Ajax Therapeutics, Inc., priority 2020, dated 2024).

pKd: −log10 of the molar value.

A word on the pKd: it is −log10 of the Kd, conventionally taken in molar units. A higher pKd goes with a low Kd.

The assay deals with T1, JAK2 (JH1domain-catalytic, Y1007F,Y1008F) kinase (Homo sapiens, UniProt O60674, Y1007F/Y1008F).
T1 construct: JAK2 (JH1domain-catalytic, Y1007F,Y1008F) kinase was expressed as N-terminal fusion; made in house; host or cells: transiently transfected HEK293 cells
T1 sequence (O60674 849-1124 Y1007F/Y1008F limits assumed): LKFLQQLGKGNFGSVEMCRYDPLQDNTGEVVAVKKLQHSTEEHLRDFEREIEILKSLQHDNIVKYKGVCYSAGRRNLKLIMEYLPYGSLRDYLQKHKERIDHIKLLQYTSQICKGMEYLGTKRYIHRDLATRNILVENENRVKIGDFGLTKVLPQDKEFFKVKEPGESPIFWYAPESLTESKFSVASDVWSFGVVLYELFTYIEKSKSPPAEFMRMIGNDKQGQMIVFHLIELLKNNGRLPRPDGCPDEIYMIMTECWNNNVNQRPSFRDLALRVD
The assay is described as follows: JAK2 JH1 Domain Binding Assay. The following applies: qPCR readout. In general terms: In qPCR the cycle at which signal appears reflects the starting amount.
On to `CN1CCC[C@@H]1COc1cc(Nc2nc3ncc(Oc4cnn5ccncc45)c(Cl)c3n2C)cc(C(F)(F)F)c1` [Example I-244, (R)-7-chloro-1-methyl-N-(3-((1-methylpyrrolidin-2-yl)methoxy)-5-(trifluoromethyl)phenyl)-6-(pyrazolo[1,5-a]pyrazin-3-yloxy)-1H-imidazo[4,5-b]pyridin-2-amine], for which the pKd was more than 8.00.

In turn, `CNc1nccn2ncc(Oc3cnc4nc(Nc5cc(CN6CC(F)C6)cc(C(F)(F)F)c5)n(C)c4c3Cl)c12` [Example I-246, 7-chloro-N-(3-((3-fluoroazetidin-1-yl)methyl)-5-(trifluoromethyl)phenyl)-1-methyl-6-((4-(methylamino)pyrazolo[1,5-a]pyrazin-3-yl)oxy)-1H-imidazo[4,5-b]pyridin-2-amine] gave a pKd of 7.30 to 8.00. Under `CNc1nccn2ncc(Oc3cnc4nc(Nc5cc(CN6CC(OC)C6)cc(C(F)(F)F)c5)n(C)c4c3Cl)c12` [Example I-247, 7-chloro-N-(3-((3-methoxyazetidin-1-yl)methyl)-5-(trifluoromethyl)phenyl)-1-methyl-6-((4-(methylamino)pyrazolo[1,5-a]pyrazin-3-yl)oxy)-1H-imidazo[4,5-b]pyridin-2-amine] stands 7.30 to 8.00. The same measure for `Cn1cc(C(F)(F)F)cc(Nc2nc3ncc(Oc4cnn5ccnc(NCCN6CCOCC6)c45)c(Cl)c3n2C)c1=O` [Example I-248, 3-((7-chloro-1-methyl-6-((4-((2-morpholinoethyl)amino)pyrazolo[1,5-a]pyrazin-3-yl)oxy)-1H-imidazo[4,5-b]pyridin-2-yl)amino)-1-methyl-5-(trifluoromethyl)pyridin-2(1H)-one]: more than 8.00; for `CNc1nccn2ncc(Oc3cnc4nc(Nc5cc(CN6CC[C@H](OC)C6)cc(C(F)(F)F)c5)n(C)c4c3Cl)c12` [Example I-249, (S)-7-chloro-N-(3-((3-methoxypyrrolidin-1-yl)methyl)-5-(trifluoromethyl)phenyl)-1-methyl-6-((4-(methylamino)pyrazolo[1,5-a]pyrazin-3-yl)oxy)-1H-imidazo[4,5-b]pyridin-2-amine]: 7.30 to 8.00; for `CNc1nccn2ncc(Oc3cnc4nc(Nc5cc(CN6CC[C@@H](OC)C6)cc(C(F)(F)F)c5)n(C)c4c3Cl)c12` [Example I-250, (R)-7-chloro-N-(3-((3-methoxypyrrolidin-1-yl)methyl)-5-(trifluoromethyl)phenyl)-1-methyl-6-((4-(methylamino)pyrazolo[1,5-a]pyrazin-3-yl)oxy)-1H-imidazo[4,5-b]pyridin-2-amine]: 7.30 to 8.00.

In the case of `CNc1nccn2ncc(Oc3cnc4nc(Nc5cc(C(C)(C)C)n([C@H]6CCN(C)C6)n5)n(C)c4c3Cl)c12` [Example I-251, (S)—N-(5-(tert-butyl)-1-(1-methylpyrrolidin-3-yl)-1H-pyrazol-3-yl)-7-chloro-1-methyl-6-((4-(methylamino)pyrazolo[1,5-a]pyrazin-3-yl)oxy)-1H-imidazo[4,5-b]pyridin-2-amine], the pKd was more than 8.00. With `CNc1nccn2ncc(Oc3cnc4nc(Nc5cc(C(C)(C)C)n([C@@H]6CCN(C)C6)n5)n(C)c4c3Cl)c12` [Example I-252, (R)—N-(5-(tert-butyl)-1-(1-methylpyrrolidin-3-yl)-1H-pyrazol-3-yl)-7-chloro-1-methyl-6-((4-(methylamino)pyrazolo[1,5-a]pyrazin-3-yl)oxy)-1H-imidazo[4,5-b]pyridin-2-amine], the pKd is 7.30 to 8.00. `Cc1nc(Nc2nc3ncc(Oc4cnn5ccncc45)c(Cl)c3n2C)nc(C)c1C1CCCC1` [Example I-253, 7-chloro-N-(5-cyclopentyl-4,6-dimethylpyrimidin-2-yl)-1-methyl-6-(pyrazolo[1,5-a]pyrazin-3-yloxy)-1H-imidazo[4,5-b]pyridin-2-amine] showed a pKd of more than 8.00. The molecule `CNc1nccn2ncc(Oc3cnc4nc(Nc5cc(C6CCN(C)CC6)cc(C(F)(F)F)c5)n(C)c4c3Cl)c12` [Example I-254, 7-chloro-1-methyl-6-((4-(methylamino)pyrazolo[1,5-a]pyrazin-3-yl)oxy)-N-(3-(1-methylpiperidin-4-yl)-5-(trifluoromethyl)phenyl)-1H-imidazo[4,5-b]pyridin-2-amine] gave a pKd of more than 8.00.

As for `CNc1nccn2ncc(Oc3cnc4nc(Nc5cc(CN(C)C)cc(C(F)(F)F)c5)n(C)c4c3Cl)c12` [Example I-255, 7-chloro-N-(3-((dimethylamino)methyl)-5-(trifluoromethyl)phenyl)-1-methyl-6-((4-(methylamino)pyrazolo[1,5-a]pyrazin-3-yl)oxy)-1H-imidazo[4,5-b]pyridin-2-amine], the pKd is more than 8.00. `Cn1c(Nc2cc(CN3CCC3)cc(C(F)(F)F)c2)nc2ncc(Oc3cnn4ccncc34)c(Cl)c21` [Example I-256, N-(3-(azetidin-1-ylmethyl)-5-(trifluoromethyl)phenyl)-7-chloro-1-methyl-6-(pyrazolo[1,5-a]pyrazin-3-yloxy)-1H-imidazo[4,5-b]pyridin-2-amine] showed a pKd of more than 8.00. Take `Cn1c(Nc2cc(CN3CC(O)C3)cc(C(F)(F)F)c2)nc2ncc(Oc3cnn4ccncc34)c(Cl)c21` [Example I-258, 1-(3-((7-chloro-1-methyl-6-(pyrazolo[1,5-a]pyrazin-3-yloxy)-1H-imidazo[4,5-b]pyridin-2-yl)amino)-5-(trifluoromethyl)benzyl)azetidin-3-ol]: the pKd is more than 8.00. Under `CNc1nccn2ncc(Oc3cnc4nc(Nc5cc(OC6CN(C)C6)cc(C(F)(F)F)c5)n(C)c4c3Cl)c12` [Example I-259, 7-chloro-1-methyl-6-((4-(methylamino)pyrazolo[1,5-a]pyrazin-3-yl)oxy)-N-(3-((1-methylazetidin-3-yl)oxy)-5-(trifluoromethyl)phenyl)-1H-imidazo[4,5-b]pyridin-2-amine] stands 7.30 to 8.00. Under `Cn1cc(C(F)(F)F)cc(Nc2nc3ncc(Oc4cnc5[nH]ncc5c4)c(C#N)c3n2C)c1=O` [Example I-260, 6-((1H-pyrazolo[3,4-b]pyridin-5-yl)oxy)-1-methyl-2-((1-methyl-2-oxo-5-(trifluoromethyl)-1,2-dihydropyridin-3-yl)amino)-1H-imidazo[4,5-b]pyridine-7-carbonitrile] stands more than 8.00; under `Cn1cc(C(F)(F)F)cc(Nc2nc3ncc(Oc4cnc5[nH]ncc5c4)c(Cl)c3n2C)c1=O` [Example I-261, 3-((6-((1H-pyrazolo[3,4-b]pyridin-5-yl)oxy)-7-chloro-1-methyl-1H-imidazo[4,5-b]pyridin-2-yl)amino)-1-methyl-5-(trifluoromethyl)pyridin-2(1H)-one], more than 8.00. Under `CNc1nccn2ncc(Oc3cnc4nc(Nc5cc(CN6CCC6)cc(C(F)(F)F)c5)n(C)c4c3Cl)c12` [Example I-263, N-(3-(azetidin-1-ylmethyl)-5-(trifluoromethyl)phenyl)-7-chloro-1-methyl-6-((4-(methylamino)pyrazolo[1,5-a]pyrazin-3-yl)oxy)-1H-imidazo[4,5-b]pyridin-2-amine] stands more than 8.00; under `CNc1nccn2ncc(Oc3cnc4nc(Nc5cc(CN6CC(O)C6)cc(C(F)(F)F)c5)n(C)c4c3Cl)c12` [Example I-264, 1-(3-((7-chloro-1-methyl-6-((4-(methylamino)pyrazolo[1,5-a]pyrazin-3-yl)oxy)-1H-imidazo[4,5-b]pyridin-2-yl)amino)-5-(trifluoromethyl)benzyl)azetidin-3-ol], 7.30 to 8.00.
